{
  "source": "patent US12465594B2",
  "about": "(Brown University, priority 2018, dated 2025)",
  "key": {"[1]": {"test_system": "NMDAR EPSCs in VTA dopamine neurons", "assay": "Electrophysiology: CRF potentiation of NMDAR EPSCs in VTA slices", "type": "cell-based, mouse", "settings": "CRF 1 μM, VTA-DA neurons, acute brain slices", "source_text": "Male and female mice (n=44; 6-10 weeks) were anesthetized with Euthasol (Butler-Schein). Brains were rapidly removed and placed in ice-cold NMDG-based artificial Cerebrospinal Fluid (aCSF) cutting solution containing (in mM): 92 NMDG, 20 HEPES, 25 glucose, 30 NaHCO3, 2.5 KCl, 1.2 NaPO4 saturated with 95% O2/5% CO2 with an osmolarity of 305-308 mOsm (Advanced Cell Diagnostics). The brain was cut in ice-cold NMDG solution to obtain horizontal VTA slices, 230 μm thick, using a Leica vibratome (Leica VT1200) and slices were incubated in warm NMDG solution (34° C.) for <5 minutes before being placed in a modified aCSF holding solution (in mM): 92 NaCl, 20 HEPES, 25 glucose, 30 NaHCO3, 2.5 KCl, 1.2 NaPO4 (305-308 mOsm). Slices were incubated at room temperature for at least 1 hour before recording.\nWhole-cell patch clamp of the lateral VTA was performed under the guidance of IR-DIC optics on an Olympus BX5iWI microscope. Cells were patched with 1.8-3 MO resistance glass microelectrodes containing the following internal solution (in mM): 117 cesium methanesulfonate, 20 HEPES, 0.4 EGTA, 2.8 NaCl, 5 TEA-CI, 4 Mg-ATP, 0.4 Na-GTP, and 5 QX-314 (280-285 mOsm). Dopamine cells were identified by the following criteria: 1) large multipolar soma, 30-40 μm in diameter, 2) tonic firing of <4 Hz when cell attached, 3) large […] with negative voltage step (identified immediately following break in). […] Series resistance was monitored online. […]\nFor electrophysiology measures, excitatory post-synaptic currents (EPSCs) were normalized to 7 minute of averaged baseline responses, prior to drug application. […] Results are reported as M±SEM a in bar graphs comparing drug to vehicle and analyzed by a one-way ANOVA and post-hoc comparisons to vehicle were performed using a Bonferroni multiple comparisons correction measures (**p<0.01). […]\nNMDAR excitatory postsynaptic currents (EPSCs) were recorded from VTA dopamine (DA) neurons in acute brain slices from male and female mice. […]"}, "[2]": {"biological_target": "HEK293 cells expressing FLAG-CRFBP(10 kD)-HA-CRF2α (Homo sapiens, UniProt P24387+Q13324)", "sequence (P24387+Q13324 fused)": "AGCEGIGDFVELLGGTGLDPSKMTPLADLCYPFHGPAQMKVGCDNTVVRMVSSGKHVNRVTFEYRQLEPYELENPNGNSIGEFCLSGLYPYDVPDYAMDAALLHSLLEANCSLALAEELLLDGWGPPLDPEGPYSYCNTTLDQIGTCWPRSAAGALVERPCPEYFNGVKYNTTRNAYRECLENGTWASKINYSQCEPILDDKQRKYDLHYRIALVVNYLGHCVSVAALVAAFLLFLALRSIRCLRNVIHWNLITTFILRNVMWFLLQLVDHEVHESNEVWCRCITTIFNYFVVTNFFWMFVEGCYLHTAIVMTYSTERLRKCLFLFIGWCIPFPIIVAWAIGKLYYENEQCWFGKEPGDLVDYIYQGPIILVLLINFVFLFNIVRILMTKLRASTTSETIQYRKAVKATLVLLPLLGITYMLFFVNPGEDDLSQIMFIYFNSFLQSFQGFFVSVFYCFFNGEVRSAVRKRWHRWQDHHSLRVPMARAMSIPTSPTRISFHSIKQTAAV", "settings": "384-well format"}},
  "data": [
    {"substance": "corticotropin releasing factor [CRF, reference compound]", "values": [
      {"measurement": "Effect of CRF on NMDAR EPSCs", "setting": "[1]", "result": "potentiated NMDA receptor EPSCs"},
      {"measurement": "EC80, CRF-induced intracellular calcium release", "setting": "[2]", "result": 1, "unit": "µM"}
    ]}
  ]
}
